From patent US20050148523A1, “Method of treating HIV infection in atazanavir-resistant patients using a combination of atazanavir and another protease inhibitor” (priority 2003, published 2005)

Assays:
[1] = tested on: HIV-1 in treatment naive patients; assay: Clinical study AI424-034, virological outcomes and resistance; type: in vivo, human; conditions: study 034
Description: (§1) Study Population. Viral samples (baseline and on-treatment, where available) were obtained from patients who experienced virologic failure while enrolled in studies AI424-007/041 [12] (ATV+d4T and ddI), AI424-008/044 [13, 14] (ATV+d4T and 3TC) and AI424-034 [9] (ATV or EFV in combination with ZDV and 3TC). […] In general, virologic failure specimens were selected for further resistance evaluation only if they contained >1,000 copies/mL HIV-1 RNA and there was no indication that the specimen came from a patient at a time of transient non-adherence to study drug(s). […] For non-responders, samples from week 16 (or 24) were tested. Drug adherence was determined from pill counts of returned study medications at each scheduled visit.
(§2) ATV resistance was defined as ≧2-fold decrease in ATV susceptibility from baseline, a Fold Change (FC) of ≧2.5 (relative to the Nl4-3 reference strain), or evidence of an isoleucine (Ile) to leucine (Leu) change at amino acid residue 50 (I50L). Resistance levels for NFV and EFV were also defined as a FC reaching 2.5.

[2] = tested on: recombinant HIV-1 viruses (NL4-3, RF, LAI) in MT-2 cells; assay: MT-2 cell susceptibility assay of recombinant viruses; type: cell-based; conditions: all three viral strains, I50L or I50L/A71V introduced by site-directed mutagenesis
Method: Cells and Viruses. MT-2 cells, HIV-1 RF, HIV1-LAI, and the HIV-1 NL4-3 proviral clones were obtained through the AIDS Research and Reference Reagent Program, National Institutes of Health. MT-2 cells were cultured in RPMI 1640 medium supplemented with 10% fetal bovine serum, 2 mM L-glutamine, and 10 mM Hepes buffer. HIV-1 viruses were generated by transient transfection of the proviral DNA into Human Embryonic Kidney 293 cells using Lipofectamine reagents (Gibco BRL). The viruses were harvested 72 hr post-transfection, amplified in MT-2 cells, and titered in the same cells using a virus yield assay.
Recombinant HIV-1 Variants and Chimeric NL4-3 Proviral Clones. HIV-1 strains with defined substitutions in the protease gene were generated by QuikChange® site-directed mutagenesis as recommended by the manufacturer (Stratagene). Recombinant NL4-3 and LAI proviral clones containing the wild-type and mutant protease genes from RF and clinical isolates were constructed by replacing the SseI/ApaI fragment of pNL4-3 with the appropriate SseI/ApaI protease fragments.
Recombinant viruses (generated separately from those made for PhenoSense assays) were tested in an MT-2 cell susceptibility assay at Bristol Myers Squibb. MT-2 cells were infected with recombinant viruses at a multiplicity of infection (MOI) of 0.005 50% tissue culture infective doses (TCID50)/cell followed by incubation in the presence or absence of serially diluted protease inhibitors for 4 to 7 days. Virus yields were quantified using a RT assay as previously described. The results from at least four independent experiments were used to calculate the EC50.

[3] = tested on: clinical isolates from patients on NFV regimens; conditions: isolates containing D30N as the only primary PI mutation; cited from earlier work
[4] = tested on: clinical isolates containing a D30N substitution; assay: PhenoSense phenotypic susceptibility of clinical isolates containing D30N; type: cell-based, HIV-1; conditions: 75 D30N containing isolates, FIG. 3
Method: (§3) Drug Susceptibility Assays. Clinical isolates were subjected to phenotypic (PhenoSense™) and genotypic (GeneSeq™) analysis by Virologic, Inc. as described elsewhere.
Comparative Studies of I50L and D30N Containing Viruses. […] Comparative studies were performed on the 18 phenotyped viruses containing an I50L and 75 clinical isolates containing a D30N substitution without evidence of cross-resistance (FC≧2.5) to other PIs.

[5] = tested on: HIV-1 variants containing I50V; conditions: in vitro; cited from earlier work
[6] = tested on: clinical isolates containing an I50L substitution (and their baseline isolates); assay: PhenoSense phenotypic susceptibility of clinical isolates from ATV-treated patients who developed I50L; type: cell-based, HIV-1; conditions: for Subceptibility, Fold Change in EC50 relative to reference strain: Subject 169, Week 114; for median increase in susceptibility from baseline: on emergence of I50L, n=4 to 15; for percentage of I50L isolates with susceptibility (FC) 0.4-fold or lower: relative to the reference strain
Description: as §1, §3

[7] = tested on: HIV-1 in treatment naive patients; assay: Clinical study AI424-008/044, virological outcomes and resistance; type: in vivo, human; conditions: study 008/044
Description: as §1, §2

[8] = tested on: HIV-1 in treatment naive patients; assay: Clinical study AI424-007/041, virological outcomes and resistance; type: in vivo, human; conditions: study 007/041
Description: as §1, §2

O=C1Nc2ccc(Cl)cc2[C@@](C#CC2CC2)(C(F)(F)F)O1 [EFV, efavirenz]
Virologic Failures (%) [1]: 17% | Virologic Failures, number [1]: 69

CC(C)(C)NC(=O)[C@@H]1CN(Cc2cccnc2)CCN1C[C@@H](O)C[C@@H](Cc1ccccc1)C(=O)N[C@H]1c2ccccc2C[C@H]1O [IDV, indinavir]
change in susceptibility [2]: enhanced susceptibility | susceptibility [3]: remained susceptible | median FC [4]: small median decreases in susceptibility | effect of I50V on susceptibility [5]: increased susceptibility | Susceptibility, Fold Change in EC50 relative to reference strain ([6]; Subject 076, Week 80): 0.4 Fold Change | Susceptibility, Fold Change in EC50 relative to reference strain ([6]; Subject 076, Week 92): 0.5 Fold Change | Susceptibility, Fold Change in EC50 relative to reference strain ([6]; Subject 100, Week 1.7): 1.6 Fold Change | Susceptibility, Fold Change in EC50 relative to reference strain ([6]; Subject 169, Week 0.1): 0.8 Fold Change | Susceptibility, Fold Change in EC50 relative to reference strain ([6]; Subject 169, Week 90): 0.5 Fold Change | Susceptibility, Fold Change in EC50 relative to reference strain ([6]; Subject 169, Week 102): 0.4 Fold Change | Subceptibility, Fold Change in EC50 relative to reference strain [6]: 0.4 Fold Change | Susceptibility, Fold Change in EC50 relative to reference strain ([6]; Subject 362, Week 0.1): 1.3 Fold Change | Susceptibility, Fold Change in EC50 relative to reference strain ([6]; Subject 362, Week 108): 0.7 Fold Change | percentage of baseline isolates exhibiting a FC≦0.4 [6]: 0% | median increase in susceptibility from baseline [6]: 2.0 fold | percentage of I50L isolates with susceptibility (FC) 0.4-fold or lower [6]: 58% | median FC ([6]; {}): ≤ 0.4

Cc1c(O)cccc1C(=O)N[C@@H](CSc1ccccc1)[C@H](O)CN1C[C@H]2CCCC[C@H]2C[C@H]1C(=O)NC(C)(C)C [NFV, nelfinavir]
change in susceptibility [2]: enhanced susceptibility | Virologic Failures (%) [7]: 30% | Virologic Failures, number [7]: 27 | median FC [4]: resistance | Virologic Failures (%) [8]: 23% | Virologic Failures, number [8]: 18 | Susceptibility, Fold Change in EC50 relative to reference strain ([6]; Subject 076, Week 80): 0.4 Fold Change | Susceptibility, Fold Change in EC50 relative to reference strain ([6]; Subject 076, Week 92): 0.6 Fold Change | Susceptibility, Fold Change in EC50 relative to reference strain ([6]; Subject 100, Week 1.7): 2.1 Fold Change | Susceptibility, Fold Change in EC50 relative to reference strain ([6]; Subject 169, Week 0.1): 1.0 Fold Change | Susceptibility, Fold Change in EC50 relative to reference strain ([6]; Subject 169, Week 90): 0.5 Fold Change | Susceptibility, Fold Change in EC50 relative to reference strain ([6]; Subject 169, Week 102): 0.5 Fold Change | Subceptibility, Fold Change in EC50 relative to reference strain [6]: 0.7 Fold Change | Susceptibility, Fold Change in EC50 relative to reference strain ([6]; Subject 362, Week 0.1): 2.3 Fold Change | Susceptibility, Fold Change in EC50 relative to reference strain ([6]; Subject 362, Week 108): 1.1 Fold Change | percentage of baseline isolates exhibiting a FC≦0.4 [6]: 0% | median increase in susceptibility from baseline [6]: 1.6 fold | percentage of I50L isolates with susceptibility (FC) 0.4-fold or lower [6]: 33%
